From ChEMBL document CHEMBL1142400, “An updated steroid benchmark set and its application in the discovery of novel nanomolar ligands of sex hormone-binding globulin” (J Med Chem, 2008)

Each compound was assayed against T1, Sex hormone-binding globulin (Homo sapiens, UniProt P04278) (assay: Displacement of [3H]5alpha dihydrotestosterone from human sex hormone binding globulin).
T1 sequence (P04278 whole entry): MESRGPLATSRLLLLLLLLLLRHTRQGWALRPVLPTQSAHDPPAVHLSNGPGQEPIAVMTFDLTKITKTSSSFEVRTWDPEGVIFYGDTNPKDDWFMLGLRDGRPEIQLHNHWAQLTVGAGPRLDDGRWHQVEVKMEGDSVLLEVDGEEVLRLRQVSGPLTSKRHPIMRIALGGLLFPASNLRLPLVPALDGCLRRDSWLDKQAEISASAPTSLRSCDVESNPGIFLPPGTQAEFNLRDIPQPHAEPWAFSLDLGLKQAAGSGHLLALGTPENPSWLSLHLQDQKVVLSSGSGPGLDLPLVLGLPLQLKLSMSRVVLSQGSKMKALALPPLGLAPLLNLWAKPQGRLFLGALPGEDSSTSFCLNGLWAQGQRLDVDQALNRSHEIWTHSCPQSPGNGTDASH
CC(C)(C)CC(C)(C)c1ccc(O)cc1 was tested, and the Kd was 2140 nM.
For C[C@]12CC[C@H]3[C@@H](CC[C@H]4CC(=O)C[C@H](CCCCCCN)[C@@]43C)[C@@H]1CC[C@@H]2O, the Kd was 29.5 nM.
Compound CC(=O)O[C@]1(C(C)=O)CC[C@H]2[C@@H]3C[C@H](C)C4=CC(=O)CC[C@]4(C)[C@H]3CC[C@@]21C [MEDROXYPROGESTERONE ACETATE] has a Kd of 631 nM.
Work on CC[C@H](C1CCCCC1)[C@@H](CC)C1CCCCC1 yielded a Kd of 2450 nM.
C[C@]12CC[C@@H]3c4ccc(O)cc4C=C[C@H]3[C@@H]1CC[C@@H]2O was tested, and the Kd was 1.74 nM.
In the case of C[C@@H]1C[C@H]2C[C@@H](O)CC[C@]2(C)[C@H]2CC[C@]3(C)[C@@H](O)CC[C@H]3[C@H]12, the Kd is reported as 1 nM.
In the case of C[C@@]12CCC[C@H]1[C@@H]1CCc3cc(O)ccc3[C@H]1CC2, the Kd is reported as 5.01 nM.
In the case of C[C@@H]1C[C@H]2CC(=O)CC[C@]2(C)[C@H]2CC[C@]3(C)[C@@H](O)CC[C@H]3[C@H]12, the Kd is reported as 0.417 nM.
Work on C[C@]12CC[C@H]3C(=CCc4cc(O)ccc43)[C@@H]1CCC2=O [EQUILIN] yielded a Kd of 3.09 nM.
C#C[C@]1(O)CC[C@H]2[C@@H]3CCC4=C[C@H](O)CC[C@]4(C)C3C(=C)C[C@@]21CC (some centres not stated) gave a Kd of 21.4 nM.
Compound C[C@@H]1CC2=CC(=O)CC[C@@H]2[C@H]2CC[C@@]3(C)C(=CC[C@@H]3O)[C@@H]21 has a Kd of 0.851 nM.
Work on C[C@]12CC[C@H](O)CC1=CC[C@@H]1[C@@H]2CC[C@]2(C)C(=O)CC[C@@H]12 [PRASTERONE] yielded a Kd of 14.5 nM.
